Laboratory results as given in patent US4250259A, “Microbiological production of ketones from C3 -C6 secondary alcohols” (priority 1979, dated 1981).
Entries after “also recorded” stand apart in the source; their conditions may differ.

What was measured:
[1] = test system: purified secondary alcohol dehydrogenase; assay: inhibition of purified yeast SADH; format: biochemical, Pichia sp. NRRL Y-11,328; conditions: primary alcohols tested at 10^-3 M
Method: Large scale cultures of Pichia sp. NRRL Y-11,328 were grown with aeration at 30° C. in a 14-liter New Brunswick f fermentor in a mineral salt medium containing methanol (0.4%, v/v) as the sole carbon source. The cells (200 g., wet weight) were suspended in […] sodium phosphate buffer, pH 7.0, containing 1 mM dithiothreitol (buffer A), and crude extracts were prepared as described previously. To the crude extracts, 18 ml. of protamine sulfate solution [2% solution in 0.1 M tris (hydroxymethyl) aminomethane (tris) base] was added dropwise with continuous stirring. After standing for 30 min., the extracts were centrifuged at 20,000× g. for 60 min. The supernatant solution was fractionated with solid ammonium sulfate. Extracts were brought to 50% of saturation with respect to ammonium sulfate by addition of 313 g. of the salt per liter of extract. Precipitated proteins was removed by centrifugation, and 137 g. of ammonium sulfate was added per liter of the supernatant liquid to bring it to 70% of saturation. Material precipitating between 50 and 70% of saturation was collected by centrifugation and dissolved in buffer A. This preparation was dialyzed overnight against buffer A, and the dialyzed material was applied to a DEAE-cellulose column (5×40 cm) that had been equilibrated with buffer A. The sample was washed with 200 ml. of buffer A and eluted with 2 liters of buffer A that contained NaCl in a linear gradient running from a concentration of 0 to 0.5 M. Fractions of 15 ml. were collected. Fractions containing secondary alcohol dehydrogenase activity were pooled and were termed DEAE-cellulose eluate. The DEAE-cellulose eluate was concentrated by ammonium sulfate fractionation.
Secondary alcohol dehydrogenase activity was measured spectrophotometrically at 340 nm with a NAD^+ as an electron acceptor. The reaction mixture, in a total 3.0 ml., contained 50 mM phosphate buffer, pH 8.0, 5 μmoles NAD^+, crude extracts, and substrate. The reactions were started by addition of 100 μl of 0.1 M substrate and the rate of NAD^+ reduction was measured. Protein concentration was determined by the method of Lowry et al.
Various primary alcohols not oxidized by secondary alcohol dehydrogenase were tested as potential inhibitors of enzyme activity.

[2] = test system: purified secondary alcohol dehydrogenase (SADH); assay: inhibition of purified SADH by metal-chelating agents, thioreagents, metals; format: biochemical, Pseudomonas sp. ATCC 21439; conditions: for % inhibition of SADH activity: each inhibitor at a final concentration of 1 mM, measured spectrofluorometrically
Method: Secondary alcohol dehydrogenase (SADH) from an obligate methanol utilizer, Pseudomonas sp. ATCC 21439 was purified as follows. […] 0.05 M sodium phosphate buffer, pH 7.0 with 0.5 mM dithiothretol (buffer A) and were disrupted sonically (5×1 min.). The crude extract was separated by centrifugation. The crude extract was heat-treated at 50° C. in a water bath for 10 minutes. The resulting precipitate was removed by centrifugation. To the supernatant solution, 25 ml of protamine sulfate solution (2% solution in 0.1 M Tris base) was added dropwise with continuous stirring. After standing for 30 minutes, the extract was centrifuged. The supernatant solution was fractionated with solid ammonium sulfate. […] This DEAE-cellulose eluate was concentrated by ammonium sulfate fractionation. Material precipitating between 30 and 50% ammonium sulfate saturation was collected by centrifugation and dialyzed overnight against A. This fraction was further washed and filtered through an Amicon unit with XM 50 membrane. The concentrated fraction (6 ml) inside the Amicon unit was applied to an Affi-Gel Blue column (0.8 cm×18 cm) which had been equilibrated with buffer A for affinity chromatography. The column was washed overnight with buffer A (0.18 ml./min.) and then was eluted with buffer A containing 5 mM NAD. Each 1 ml. fraction was collected.
The purified secondary alcohol dehydrogenase enzyme (SADH) may be used directly for converting C3 -C6 secondary alcohols to the corresponding methyl ketones by the procedures described above; however, a source of NAD^+ must be added to the reaction medium. One can determine the NAD-linked secondary alcohol dehydrogenase activity with a fluorescence spectrophotometer (Perkin Elmer, Model MPF 44A) by following the formation of reduced NAD (Ex 340 nm, Em 460 nm). The assay system (3 ml.) will typically contain: sodium phosphate buffer pH 7.0, 150 μmol; NAD 1.0 μmol; a given amount of enzyme preparation; and 20 μmol secondary alcohol. The reaction is started by the addition of secondary alcohol. One unit of SADH enzyme activity represents the reduction of one nmole NAD per minute.
The effect of metal-chelating agents and thioreagents on the activity of the purified SADH enzyme were studied. […] The possibility of ethanol or n-propanol as an inhibitor was studied.

[3] = test system: cell suspensions of C1-utilizers; assay: studies on production of 2-butanone from 2-butanol by cell suspensions of the strains tested; format: cell-based; conditions: for inhibition of production of 2-butanone from 2-butanol by cell suspensions: strains tested
Excerpt: The following summarizes tests conducted on the optimal conditions for the production of methyl ketones from C3 -C6 sec. alcohols.
The substrate specificity for the oxidation of C3 -C6 secondary alcohols by the strains of C1 -utilizers was studied.

[4] = test system: cell-free particulate fractions of methane-grown methylotrophs; assay: inhibitors and electron donors of n-alkane conversion to sec. alcohols by cell-free particulate fractions; format: biochemical
Excerpt: The conditions for preparing the cell suspensions or the cell-free particulate fractions from methane-grown methylotroph microorganisms is the same as described above.

[5] = test system: cell-free extracts of strain ATCC 21439; assay: stoichiometry of production of 2-butanone from 2-butanol by cell-free extracts (Table IX); format: biochemical, Pseudomonas sp. ATCC 21,439; conditions: for NAD Consumed: fluorescence spectrophotometrically
Method: The reaction mixtures 3 ml (1.0 mg protein) were incubated at 30°
^(a) Determined gas chromatographically.
^(b) Determined fluorescence spectrophotometrically.
consumption of NAD was corrected.

cell-free SADH system = assay: cofactor requirement of the cell-free SADH systems; format: biochemical; conditions: cell-free systems tested
Method: To prepare the cell-free secondary alcohol dehydrogenase (SADH) system, the washed cells were disrupted with a Wave Energy Ultrasonic Oscillator, Model W201 (Wave Energy System, Inc., Newtown, Pa.) and centrifuged at 20,000×g. for 30 minutes. […] The enzyme activity was measured with a fluorescence spectrophotometer (Perkin Elmer, Model MPF 44A) by following the formation of reduced NAD (EX 340 nm, Em 460 nm). The formation of reduced NAD was also followed with an absorption spectrophotometer at 340 nm. The assay system (3 ml.) contained: potassium phosphate buffer pH 7.0; 150 μmol.; NAD 1 μmol.; a given amount of enzyme preparation; and secondary alcohol 10 μmol. The reaction was started by the addition of substrate. One unit of enzyme activity represents the reduction of one μmole NAD per minute. Protein concentrations were determined by the Lowry method (J. Biol. Chem., 193: 255-275 (1951)).

[6] = test system: purified secondary alcohol dehydrogenase; assay: substrate specificity, electron acceptor and stoichiometry of purified yeast SADH
[7] = test system: Methylococcus capsulatus Texas (ATCC 19069); assay: n-alkanes to methyl ketones by resting cell suspensions (Table I); format: cell-based; conditions: cells grown on methane; 30° C.
Method: (§1) The pH of the nutrient medium was adjusted to 7.0 by the addition of acid or base and 50 ml. samples of the nutrient medium were charged into a plurality of 300 ml. shaker flasks. […] The isolates had been maintained on methanol (0.4% V/V) agar plates or on agar plates under an atmosphere of methane and air having a 1:1 V/V gas ratio which had been transferred every two weeks. For growth on methanol, the medium was supplemented with 0.4% methanol. For growth on methane, the gaseous phase of the inoculated flasks was replaced with a gas mixture comprised of methane and air having a ratio of 1:1 on a V/V basis. The inoculated flasks were sealed air-tight and were incubated on a rotary shaker of orbital radius 2.5 cm. at 250 rpm and at 30° C. for two days until turbidity in the medium had developed. The cells were harvested by centrifugation at 10,000×g. at 4° C. for 30 minutes. The cell pellet was washed twice with a 0.05 M phosphate buffer at a pH of 7.0 (containing 0.02 M MgCl2). The washed cells were then suspended in a 0.05 M phosphate buffer at pH 7.0.
(§2) A 0.5 ml. sample of each washed cell suspension (2 mg. cells) was put into 10 ml. vials at 4° C. which were sealed with a rubber cap. The gaseous phase of the vials was removed with vacuum and then was replaced with a gas mixture of the substrate reactant (i.e., alkane or secondary alcohol) and oxygen at a 1:1 V/V ratio. (In the case of a liquid substrate, i.e., secondary alcohol, 10 μl of the substrate was put in the 10 ml. vials). The vials were then incubated at 30° C. on a rotary shaker at 300 rpm. Samples of product (1-3 μl) were withdrawn periodically with a microsyringe and the products were analyzed by gas chromatography (ionization flame detector column).

[8] = test system: Methylocystis parvus OBBP (NRRL B-11,198); assay: as above; format: cell-based; conditions: cells grown on methane; 30° C.
Method: as §1, §2

[9] = test system: Methylobacter capsulatus Y (NRRL B-11,201); assay: as above; format: cell-based; conditions: cells grown on methane; 30° C.
Method: as §1, §2

[10] = test system: Methylosinus trichosporium OB3b (NRRL B-11,196); assay: as above; format: cell-based; conditions: cells grown on methane; 30° C.
Method: as §1, §2

[11] = test system: Methylobacterium organophilum XX; assay: as above; format: cell-based; conditions: cells grown on methane; 30° C.
Method: as §1, §2

[12] = test system: Methylomonas methanica SI (NRRL B-11,199); assay: as above; format: cell-based; conditions: cells grown on methane; 30° C.
Method: as §1, §2

[13] = test system: Methylosinus trichosporium (OB3b, NRRL-B-11,196); assay: n-alkanes to secondary alcohols by cell suspensions (Table XVI); format: cell-based; conditions: Growth Substrate Methane
Excerpt: (§3) Both cell suspensions (particulate fraction) and cell-free particulate fraction of methane-grown methylotroph microorganisms are capable of catalyzing the conversion of C3 -C6 n-alkanes to the corresponding alcohols including secondary alcohols. The conditions for preparing the cell suspensions or the cell-free particulate fractions from methane-grown methylotroph microorganisms is the same as described above. The cell-free particulate fraction requires the presence of oxygen and NADH as an electron donor. […] Tables XVI and XVII show the conversion of C3 -C6 n-alkanes to the corresponding secondary alcohols using cell suspensions and cell-free particulate fractions, respectively, of methane-grown methylotroph microorganisms.
(§4) ^(a) The product secondary alcohols were identified and estimated by […]

[14] = test system: Methylobacterium sp. (CRL-26, NRRL-B-11,208); assay: as above; format: cell-based; conditions: Growth Substrate Methane
Excerpt: as §3, §4

[15] = test system: Methylococcus capsulatus (Texas, ATCC 19,069); assay: as above; format: cell-based; conditions: Growth Substrate Methane
Excerpt: as §3, §4

## c1cnc2c(c1)ccc1cccnc12 [1,10-phenanthroline]
[1]
  inhibition of purified yeast secondary alcohol dehydrogenase activity: strongly inhibited
[2]
  % inhibition of SADH activity: 95%
[3]
  inhibition of production of 2-butanone from 2-butanol by cell suspensions: inhibited
[4]
  inhibition of conversion of n-alkanes to sec. alcohols (words): inhibited

## CCC(C)=O [2-butanone]
[5]; Experiment 2: 20 min., gas chromatographically
  2-Butanone Produced: 520 nmol
[2]
  inhibition of SADH activity: inhibited
[3]; 8 μmoles of 2-butanone added
  further oxidation / degradation of 2-butanone by viable cell suspensions: Some enzymatic degradation; also recorded: slowly disappeared
[3]
  inhibition of production of 2-butanone from 2-butanol by cell suspensions: No product (2-butanone) inhibition was observed; also recorded: did not inhibit

## N[C@@H](CCC(=O)N[C@@H](CS)C(=O)NCC(=O)O)C(=O)O [GSH, glutathione]
cell-free SADH system
  effectiveness as cofactor for oxidation of 2-butanol / C3-C6 secondary alcohols: not effective
[1]
  inhibition of purified yeast secondary alcohol dehydrogenase activity: strongly inhibited

## NC(=O)c1ccc[n+]([C@@H]2O[C@H](COP(=O)([O-])OP(=O)(O)OC[C@H]3O[C@@H](n4cnc5c(N)ncnc54)[C@H](O)[C@@H]3O)[C@@H](O)[C@H]2O)c1 [NAD, Nicotinamide adenine dinucleotide, reference compound]
[5]; Experiment 1: 10 min.
  NAD Consumed: 270 nmol
[5]; Experiment 2: 20 min.
  NAD Consumed: 540 nmol
cell-free SADH system
  effectiveness as cofactor for oxidation of 2-butanol / C3-C6 secondary alcohols: required
[6]
  ability to act as electron acceptor/carrier for the purified enzyme: required

## O=S(=O)([O-])[O-].[Cu+2] [cupric sulfate]
[1]
  inhibition of purified yeast secondary alcohol dehydrogenase activity: inhibited

## c1c[nH]cn1 [imidiazole]
[1]
  inhibition of purified yeast secondary alcohol dehydrogenase activity: strongly inhibited

## N#C[S][Hg][S]C#N [mercuric thiocyanate]
[1]
  inhibition of purified yeast secondary alcohol dehydrogenase activity: inhibited

## CCCCCC [n-Hexane, n-hexane]
[7]
  Conversion Rates, n-alkane to corresponding methyl ketone: 0.09 μmoles/hr/mg protein
[8]
  Conversion Rates, n-alkane to corresponding methyl ketone: 0.04 μmoles/hr/mg protein
[9]
  Conversion Rates, n-alkane to corresponding methyl ketone: 0.07 μmoles/hr/mg protein
[10]
  Conversion Rates, n-alkane to corresponding methyl ketone: 0.05 μmoles/hr/mg protein
[11]
  Conversion Rates, n-alkane to corresponding methyl ketone: 0.09 μmoles/hr/mg protein
[12]
  Conversion Rates, n-alkane to corresponding methyl ketone: 0.02 μmoles/hr/mg protein
[13]
  Conversion Rate, n-alkane to corresponding secondary alcohol: 0.01 μmoles/hr/^5 mg. protein
[14]
  Conversion Rate, n-alkane to corresponding secondary alcohol: 0.007 μmoles/hr/^5 mg. protein
[15]
  Conversion Rate, n-alkane to corresponding secondary alcohol: 0.01 μmoles/hr/^5 mg. protein

## O=C(O)c1cc[c]([Hg+])cc1.[OH-] [p-hydroxymercuribenzoate]
[1]
  inhibition of purified yeast secondary alcohol dehydrogenase activity: strongly inhibited
[2]
  % inhibition of SADH activity: 100%

## C[n+]1c2ccccc2nc2ccccc21 [phenazine methosulfate, reference compound]
cell-free SADH system
  effectiveness as cofactor for oxidation of 2-butanol / C3-C6 secondary alcohols: not effective
[6]
  ability to act as electron acceptor/carrier for the purified enzyme: could not act as electron carrier

## O=[N+]([O-])[O-].[Ag+] [silver nitrate]
[1]
  inhibition of purified yeast secondary alcohol dehydrogenase activity: inhibited
